These results are taken from paper PMC9571063 (Molecules, 2022).

One data set deals with T1, HsCLK1 (Homo sapiens, UniProt P49759).
T1 construct: host or cells: Sf9 insect cells (baculovirus)
Put plainly: ADP-Glo kinase assay. The class given is biochemical. (In ADP-Glo the light output rises with the ADP produced.)

The next data set concerns the target T2, Hs_CDK5/p25 (Homo sapiens, UniProt Q00535).
T2 construct: host or cells: bacteria
Briefly: ADP-Glo kinase assay, primary screen. The class given is biochemical. The following applies: n=2, read-out: % of residual activity Hs_CDK5/p25.

For another data set, the target named is T3, Hs_PIM1 (Homo sapiens, UniProt P11309).
T3 construct: host or cells: Sf9 insect cells (baculovirus)
Put plainly: ADP-Glo kinase assay, primary screen. The class given is biochemical. The following applies: n=2, read-out: % of residual activity Hs_PIM1.

A further data set addresses T4, Rn_DYRK1A (Rattus norvegicus, UniProt Q63470).
T4 construct: host or cells: bacteria
Put plainly: ADP-Glo kinase assay, primary screen. The following applies: n=2, read-out: % of residual activity Rn_DYRK1A. The class given is biochemical.

In a further data set the target is T5, Hs_HASPIN (Homo sapiens, UniProt Q8TF76).
T5 construct: host or cells: bacteria
T5 sequence (Q8TF76 1-798): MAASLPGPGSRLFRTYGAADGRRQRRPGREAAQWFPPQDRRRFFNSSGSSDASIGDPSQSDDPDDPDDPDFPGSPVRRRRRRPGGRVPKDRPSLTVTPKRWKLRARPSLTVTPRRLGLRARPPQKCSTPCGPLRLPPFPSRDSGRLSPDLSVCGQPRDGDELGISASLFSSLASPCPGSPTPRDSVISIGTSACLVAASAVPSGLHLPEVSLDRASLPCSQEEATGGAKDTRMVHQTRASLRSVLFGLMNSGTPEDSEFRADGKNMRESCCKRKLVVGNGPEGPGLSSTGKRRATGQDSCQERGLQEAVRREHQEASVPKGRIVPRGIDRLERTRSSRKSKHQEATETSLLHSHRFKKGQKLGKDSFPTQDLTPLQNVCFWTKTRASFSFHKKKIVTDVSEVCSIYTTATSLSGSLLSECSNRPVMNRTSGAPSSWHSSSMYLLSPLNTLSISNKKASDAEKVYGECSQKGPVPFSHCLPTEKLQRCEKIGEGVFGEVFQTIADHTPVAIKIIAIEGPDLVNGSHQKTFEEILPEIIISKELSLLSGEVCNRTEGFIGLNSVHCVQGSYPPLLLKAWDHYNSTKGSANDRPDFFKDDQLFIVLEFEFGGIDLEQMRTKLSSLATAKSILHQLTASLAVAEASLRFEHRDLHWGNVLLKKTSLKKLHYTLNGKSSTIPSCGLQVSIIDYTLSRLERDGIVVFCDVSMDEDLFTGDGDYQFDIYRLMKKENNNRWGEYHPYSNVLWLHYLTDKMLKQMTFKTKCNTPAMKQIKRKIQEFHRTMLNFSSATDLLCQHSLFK
Briefly: ADP-Glo kinase assay, primary screen. The class given is biochemical. The following applies: n=2, read-out: % of residual activity Hs_HASPIN.

The target in another data set is T6, Hs_GSK3β (Homo sapiens, UniProt P49841).
T6 construct: host or cells: Sf9 insect cells (baculovirus)
Put plainly: ADP-Glo kinase assay, primary screen. To be noted: n=2, read-out: % of residual activity Hs_GSK3β. The class given is biochemical.

The target of a further data set is T7, Hs_CK1ε (Homo sapiens, UniProt P49674).
T7 construct: host or cells: Sf9 insect cells (baculovirus)
Put plainly: ADP-Glo kinase assay, primary screen. The class given is biochemical. To be noted: n=2, read-out: % of residual activity Hs_CK1ε.

Data set [1] can be described thus: cytotoxic assay, nuclei count (Hoechst, HCS). The class given is cell-based. To be noted: human, HuH7 cells (hepatocellular carcinoma); 48 h treatment; read-out: Cytotoxic studies IC50 HuH7.
Data set [2] is described as follows: cytotoxic assay, nuclei count (Hoechst, HCS). The class given is cell-based. To be noted: human, Caco-2 cells (colorectal adenocarcinoma); 48 h treatment; read-out: Cytotoxic studies IC50 Caco2.
Data set [3] in a line: cytotoxic assay, nuclei count (Hoechst, HCS). The class given is cell-based. The following applies: human, 48 h treatment.
The nature of data set [4]: cytotoxic assay, nuclei count (Hoechst, HCS). The following applies: human, MCF7 cells (breast carcinoma); 48 h treatment; read-out: Cytotoxic studies IC50 MCF7. The class given is cell-based.
Data set [5] in a line: cytotoxic assay, nuclei count (Hoechst, HCS). The class given is cell-based, human. To be noted: human, human skin fibroblasts (non-cancerous reference cells); 48 h treatment; some cells add low/moderate/high amplitude; read-out: Cytotoxic studies IC50 Fibroblasts.
Where [6] appears, read: 10 µM ATP, duplicate, read-out: IC50 HsCLK1.
[7] abbreviates: HCT116 cells (colorectal adenocarcinoma), read-out: Cytotoxic studies IC50 HCT116.
The mark [8] stands for this setting: MDA-MB-468 cells (breast carcinoma), read-out: Cytotoxic studies IC50 MDA-MB-468.

Values joined by “and” are separate entries in the source; they are usually repeats but may differ in a detail not shown here. Equal entries are not always repeated. Structures can show the parent of a compound that is named as a salt. Where two headings read alike, the source gives them in different places.

One may read the IC50 as the concentration that gives 50% inhibition.

T3 sequence (P11309 whole entry): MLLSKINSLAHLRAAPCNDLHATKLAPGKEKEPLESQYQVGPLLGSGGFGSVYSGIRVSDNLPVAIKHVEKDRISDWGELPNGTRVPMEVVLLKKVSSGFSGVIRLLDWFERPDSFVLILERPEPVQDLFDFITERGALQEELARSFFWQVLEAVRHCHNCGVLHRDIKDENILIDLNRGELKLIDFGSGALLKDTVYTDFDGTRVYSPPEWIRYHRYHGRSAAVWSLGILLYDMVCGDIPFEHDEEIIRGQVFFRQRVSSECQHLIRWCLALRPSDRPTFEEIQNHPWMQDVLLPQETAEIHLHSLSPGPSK
T2 sequence (Q00535 whole entry): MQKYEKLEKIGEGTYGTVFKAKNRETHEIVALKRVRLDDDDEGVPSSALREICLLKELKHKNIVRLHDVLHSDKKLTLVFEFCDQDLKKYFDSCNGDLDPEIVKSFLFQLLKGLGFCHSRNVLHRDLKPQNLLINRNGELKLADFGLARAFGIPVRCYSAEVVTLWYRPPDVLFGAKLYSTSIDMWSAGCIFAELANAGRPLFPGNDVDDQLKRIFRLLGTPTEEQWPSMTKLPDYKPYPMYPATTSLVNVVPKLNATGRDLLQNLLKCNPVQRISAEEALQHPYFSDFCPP
T2 sequence (Q15078 99-307 partner limits assumed): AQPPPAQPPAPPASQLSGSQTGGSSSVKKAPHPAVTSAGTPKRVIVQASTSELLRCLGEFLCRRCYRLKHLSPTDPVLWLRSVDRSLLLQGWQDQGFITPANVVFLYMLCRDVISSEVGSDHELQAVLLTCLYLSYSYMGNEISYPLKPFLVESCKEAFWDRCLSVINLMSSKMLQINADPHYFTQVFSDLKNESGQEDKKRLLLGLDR
T1 sequence (P49759 whole entry): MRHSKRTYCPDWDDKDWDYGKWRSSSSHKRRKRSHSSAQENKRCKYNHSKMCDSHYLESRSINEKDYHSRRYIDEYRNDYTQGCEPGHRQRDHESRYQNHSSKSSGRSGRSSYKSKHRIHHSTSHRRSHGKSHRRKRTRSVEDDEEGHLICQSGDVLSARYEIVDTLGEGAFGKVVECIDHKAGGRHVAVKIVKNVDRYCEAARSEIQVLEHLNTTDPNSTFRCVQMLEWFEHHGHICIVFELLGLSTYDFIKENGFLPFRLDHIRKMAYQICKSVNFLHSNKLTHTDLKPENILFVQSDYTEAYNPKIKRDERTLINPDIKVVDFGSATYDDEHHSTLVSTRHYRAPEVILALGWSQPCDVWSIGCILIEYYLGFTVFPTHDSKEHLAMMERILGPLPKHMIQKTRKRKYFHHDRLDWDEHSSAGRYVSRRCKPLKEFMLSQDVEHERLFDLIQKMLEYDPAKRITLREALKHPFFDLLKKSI
T7 sequence (P49674 whole entry): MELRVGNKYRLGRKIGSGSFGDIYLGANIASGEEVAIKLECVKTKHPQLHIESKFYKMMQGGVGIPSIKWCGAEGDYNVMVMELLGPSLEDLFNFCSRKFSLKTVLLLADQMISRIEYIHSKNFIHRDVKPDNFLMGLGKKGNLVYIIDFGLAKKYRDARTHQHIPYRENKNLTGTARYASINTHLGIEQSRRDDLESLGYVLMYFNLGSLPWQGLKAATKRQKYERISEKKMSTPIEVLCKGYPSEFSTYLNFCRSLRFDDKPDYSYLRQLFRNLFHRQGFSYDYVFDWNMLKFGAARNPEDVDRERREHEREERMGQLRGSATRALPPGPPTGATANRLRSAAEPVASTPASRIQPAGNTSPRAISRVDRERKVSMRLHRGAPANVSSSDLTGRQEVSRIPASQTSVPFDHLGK
T6 sequence (P49841 whole entry): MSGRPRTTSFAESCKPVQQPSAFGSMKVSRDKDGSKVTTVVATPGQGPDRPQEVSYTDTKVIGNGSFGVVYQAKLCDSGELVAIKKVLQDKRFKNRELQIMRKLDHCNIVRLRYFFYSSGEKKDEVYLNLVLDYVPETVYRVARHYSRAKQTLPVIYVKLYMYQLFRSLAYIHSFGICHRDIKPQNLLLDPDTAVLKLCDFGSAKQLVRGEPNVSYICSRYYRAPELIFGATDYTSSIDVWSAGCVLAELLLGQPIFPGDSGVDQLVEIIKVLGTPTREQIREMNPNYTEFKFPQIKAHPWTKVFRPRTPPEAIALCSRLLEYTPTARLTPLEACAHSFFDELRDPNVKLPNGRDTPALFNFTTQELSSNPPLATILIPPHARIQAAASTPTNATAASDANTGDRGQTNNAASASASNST

Consider `Cc1ccc(-n2cc(COc3cccc4cnc(Nc5cc(Cl)cc(Cl)c5)nc34)nn2)c([N+](=O)[O-])c1` [7b, N-(3,5-dichlorophenyl)-8-((1-(4-methyl-2-nitrophenyl)-1H-1,2,3-triazol-4-yl)methoxy)quinazolin-2-amine], for which, at HsCLK1 (setting [6]), the IC50 worked out at 85 nM. Further, the remaining activity at 1 µM at Hs_CDK5/p25 was 93%; on Hs_PIM1 it was 87%; on Rn_DYRK1A, 87%; on Hs_HASPIN, 81%; on Hs_GSK3β, 85%; on Hs_CK1ε, 81%. Also, the remaining activity at 10 µM at Hs_CDK5/p25 came to 68%; at Hs_PIM1, 84%; at Rn_DYRK1A it was 95%; on Hs_HASPIN, 46%; at Hs_GSK3β, 36%; on Hs_CK1ε, 47%. Further, the IC50 at 48 h in data set [1] was above 25000 nM; in [2], above 25000 nM; in [3] (setting [7]), above 25000 nM; in data set [3] (setting [8]), above 25000 nM; in [4], 24000 nM; in data set [5], above 25000 nM.

`O=[N+]([O-])c1cc(Br)ccc1-n1cc(COc2cccc3cnc(Nc4cccc(Cl)c4)nc23)nn1` [12d, N-(3-Chlorophenyl)-8-((1-(4-bromo-2-nitrophenyl)-1H-1,2,3-triazol-4-yl)methoxy)quinazolin-2-amine]: the IC50 at HsCLK1 (setting [6]) is 200 to 300 nM and 378 nM. For the same compound, the remaining activity at 1 µM on Hs_CDK5/p25 is at least 100%; on Hs_PIM1, 85%; at Rn_DYRK1A, at least 100%; at Hs_HASPIN it was 91%; on Hs_GSK3β, at least 100%; on Hs_CK1ε it was at least 100%. Also, the remaining activity at 10 µM on Hs_CDK5/p25 was at least 100%; at Hs_PIM1, 70%; at Rn_DYRK1A, 76%; at Hs_HASPIN, 95%; on Hs_GSK3β, 75%; on Hs_CK1ε, 90%. The 50% inhibitory concentration (IC50) at 48 h in [1] was 2000 nM; in [2], above 25000 nM; in [3] (setting [7]), above 25000 nM; in data set [3] (setting [8]), above 25000 nM; in data set [4], above 25000 nM; in data set [5], 13000 nM.

For the compound `O=[N+]([O-])c1cc(CO)ccc1-n1cc(COc2cccc3cnc(Nc4cccc(Cl)c4)nc23)nn1` [12e, 4-(4-(((2-((3-Chlorophenyl)amino)quinazolin-8-yl)oxy)methyl)-1H-1,2,3-triazol-1-yl)-3-nitrobenzyl alcohol], the IC50 on HsCLK1 (setting [6]) is 146 nM; on HsCLK1 (read-out: IC50 human CLK1), 150 to 200 nM. Also, the remaining activity at 1 µM at Hs_CDK5/p25 is at least 100%; at Hs_PIM1 it was 96%; at Rn_DYRK1A, 80%; on Hs_HASPIN, 92%; at Hs_GSK3β it was 99%; at Hs_CK1ε, at least 100%. In addition, the remaining activity at 10 µM at Hs_CDK5/p25 was 54%; on Hs_PIM1, 69%; at Rn_DYRK1A, 34%; on Hs_HASPIN, 88%; at Hs_GSK3β it was 35%; on Hs_CK1ε it was 52%. Moreover, the IC50 at 48 h in data set [1] was found to be 3000 nM; in data set [2] it was 7000 nM; in [3] (setting [7]), 3000 nM; in data set [3] (setting [8]), 4000 nM; in data set [4], 4000 nM; in [5], 6000 nM.

As to `COC(=O)c1ccc(-n2cc(COc3cccc4cnc(Nc5cccc(Cl)c5)nc34)nn2)c([N+](=O)[O-])c1` [12f, Methyl 4-(4-(((2-((3-chlorophenyl)amino)quinazolin-8-yl)oxy)methyl)-1H-1,2,3-triazol-1-yl)-3-nitrobenzoate], at HsCLK1 (setting [6]), the IC50 was 293 nM. The remaining activity at 1 µM on Hs_CDK5/p25 was at least 100%; at Hs_PIM1, 73%; on Rn_DYRK1A, at least 100%; on Hs_HASPIN, 73%; at Hs_GSK3β, 99%; at Hs_CK1ε, at least 100%. The remaining activity at 10 µM turned out to be 61% at Hs_CDK5/p25; 66% on Hs_PIM1; 83% at Rn_DYRK1A; 76% at Hs_HASPIN; 69% on Hs_GSK3β; 95% on Hs_CK1ε. In addition, the IC50 at 48 h in data set [1], in [2], in data set [3] (setting [7]), in [3] (setting [8]), in data set [4] and in data set [5] was above 25000 nM each time.

For `O=C(O)c1ccc(-n2cc(COc3cccc4cnc(Nc5cccc(Cl)c5)nc34)nn2)c([N+](=O)[O-])c1` [12g, 4-(4-(((2-((3-Chlorophenyl)amino)quinazolin-8-yl)oxy)methyl)-1H-1,2,3-triazol-1-yl)-3-nitrobenzoic acid], on HsCLK1 (setting [6]), the IC50 is 4 nM. The remaining activity at 1 µM at Hs_CDK5/p25 was 45%; at Hs_PIM1, 66%; at Rn_DYRK1A, 61%; on Hs_HASPIN, 75%; on Hs_GSK3β it was 76%; on Hs_CK1ε, 98%. Also, the remaining activity at 10 µM is 97% at Hs_CDK5/p25; 31% at Hs_PIM1; 39% on Rn_DYRK1A; 69% at Hs_HASPIN; 19% at Hs_GSK3β; 72% on Hs_CK1ε. Besides, the IC50 at 48 h in [1], in [2], in data set [3] (setting [7]), in [3] (setting [8]), in [4] and in data set [5] was above 25000 nM throughout.

In the case of `N[C@H]1CC[C@@H](n2cc(COc3cccc4cnc(Nc5cc(Cl)cc(Cl)c5)nc34)nn2)CC1` [16b, 8-((1-((cis)-4-Aminocyclohexyl)-1H-1,2,3-triazol-4-yl)methoxy)-N-(3,5-dichlorophenyl)quinazolin-2-amine hydrochloride], on HsCLK1 (setting [6]), the IC50 was determined as 53 nM. The remaining activity at 1 µM on Hs_CDK5/p25 is 87%; at Hs_PIM1 it was 69%; on Rn_DYRK1A it was 71%; on Hs_HASPIN, 76%; on Hs_GSK3β it was 47%; on Hs_CK1ε it was 82%. In addition, the remaining activity at 10 µM on Hs_CDK5/p25 is 44%; at Hs_PIM1, 15%; at Rn_DYRK1A, 20%; on Hs_HASPIN, 76%; at Hs_GSK3β, 8%; on Hs_CK1ε, 24%. Besides, the IC50 at 48 h in data set [1] was determined as 2000 nM; in data set [2], 3000 nM; in [3] (setting [7]), 2400 nM; in data set [3] (setting [8]), 1000 nM; in data set [4] it was 3000 nM; in [5], 2000 nM.
